Assay results published in patent publication US5955434A, “Gel-forming polypeptide derivatives” (Brigham & Women's Hospital, priority 1996, dated 1999).
Residues, ends and D or L forms follow the SMILES beside them. *: point of attachment. Fmoc = O=C(OCC1c2ccccc2-c2ccccc21)*; Boc = CC(C)(C)OC(=O)*

Experiments:
rabbits = assay: Immunization of rabbits, antibody titers (double diffusion in agarose gel, reverse radial diffusion, passive hemagglutination); format: in vivo, rabbit; details: for production of specific antibodies, injected alone: rabbits, Ada2Me 5 mM, AdaMeC 33 mM
Description: (§1) The low molecular weight drugs 3,5-dimethyl-1-adamantanamine hydrochloride (Ada2Me) and 5-methyl-1-adamantanamine 3-carboxylic acid (AdaMeC) can also be incorporated into the Fmoc-Leu-Asp gels (10 mg/ml=21 mM) at concentrations of […] and 33 mM, respectively. At higher total concentrations, (>5 mM Ada2Me or >33 mM AdaMeC) these agents inhibit gelation. […] Fmoc-Leu-Asp alone produced antibodies with titers no greater than 1:4.
Female random-bred rabbits were immunized three times, at weekly intervals and bled on the 24th day. A full dose was used for the first two immunizations, and a half of the full dose for the third immunization. Full doses of the BSA conjugates were 100 μg total protein. Before injections, AdaMeC-BSA and AdaMeC-Bal-BSA solutions were diluted with equal volumes of complete Freund's adjuvant, but AdaMeC+dipeptide gel was diluted with an equal volume of 0.01M phosphate buffer; pH 7.4. The volume of immunogen solutions injected each time was 1 ml. Immune sera were analyzed by two immunoprecipitation assays, the double diffusion in agarose gel and the reverse radial immunodiffusion, as described by Oudin, J. Meth. Enzymol., 70, 166-98 (1980). As shown in FIG. 8A double diffusion in agarose was used to determine the titer of antibodies recognizing AdaMeC-containing conjugates in sera of rabbits immunized with AdaMeC-coupled with or without a beta-alanine (Bal) spacer to BSA in complete Freunds adjuvant or with AdaMeC mixed with Fmoc-Leu-Asp without adjuvant. The antisera were tested against each of the three immunogens and compared to sera of rabbits injected with either AdaMeC or Fmoc-Leu-Asp-alone. And as shown in FIG. 8B the passive hemagglutination test, as described in Adler, F. L. & Adler, L. T., Meth. Enzymol., 70, 455-66 (1980), was used to analyze antisera of rabbits immunized with each of the three AdaMeC conjugates after challenge with the three AdaMeC conjugates, AdaMeC alone or Ada2Me. In the first two assays, the solid phase was 1% agarose containing 0.8% sodium chloride. The sample volumes were 25 μl. The probes were incubated for 72 h at 37° C. […]

[1] = Incorporation of low molecular weight drugs into Fmoc-Leu-Asp gels; format: physicochemical; details: Fmoc-Leu-Asp gel 10 mg/ml=21 mM
Description: as §1

[2] = methanol and cyclohexane; cited from earlier work
[3] = Aqueous gel formation of Fmoc-protected peptides; format: physicochemical; details: for Gel formed / Gel formed (minimum conc., %): aqueous gels
Description: Aqueous gels of the synthesized compounds can be made by several methods which are outlined here and more fully described in the examples.
1. Finely ground dipeptide or tripeptide compound is suspended in boiling water, the mixture is briefly and vigorously mixed or shaken and left to cool. Between 50-60° C. gelation occurrs. This procedure can be repeated to obtain a more homogeneous mixture and a stronger gel.
2. The dipeptide or tripeptide compound is dissolved in a minimal volume of organic solvent which is miscible in water, and at room temperature a small volume of the solution is added to a large volume of water with rapid mixing, after which the gel forms.
3. Methods 1 and 2 can be combined.
(§2) Boil 10 ml water and suspend in it 0.8% finely ground compound 5 of Table 2. Strongly shake or stir the suspension then let stand 10-15 minutes. On cooling the solution becomes turbid at 50-60° C. and at room temperature a gel forms. The gel can be reheated, agitated and recooled. When repeated several times, a stronger gel forms.

[4] = Gel drying (evaporation of water); format: physicochemical
Description: Gels containing either 0.5-0.6% or 0.8% compound 5, gelatin, or starch are disolved in water at 90° C. and briefly cooled. The solutions (0.8 ml) are poured into shallow plastic dishes (17 mm inner diameter). On reaching room temperature, the dishes are weighed and left with desicants but without vacuum to dry. […] After 15 hours, the compound 5 gel has lost 57% of its water, but the gelatine and starch solutions have lost 70% and 87% of their water, respectively.

[5] = Low strain oscillatory rheology (Rheometrics RFSII); format: physicochemical
Description: (triangles.) and 20° C. (circles). Other experimental conditions are as described for FIG. 6B.
Other experimental conditions and symbols are as described for FIG. 6C.
Of particular interest in this invention are the gels formed with Fmoc-Leu-Asp. At concentrations between 1 mg/ml and 1.5 mg/ml solutions of Fmoc-Leu-Asp undergo an abrupt increase in light scattering at both 20° C. and 60° C., as shown in FIG. 6A wherein 1 ml solutions in 1 cm diameter cylindrical cells were measured with a Brookhaven Instruments BI30ATN apparatus using a 633 nm 10 mW laser. When a solution of 2 mg/ml dipeptide is cooled from 100° C. to 60° C., viscoelastic parameters characteristic of a gel are obtained by low strain oscillatory measurements. The storage shear storage modulus, G', a measure of the elastic strength of the material, reaches a stable level of 80 Pa within several minutes (FIG. 6B). These measurements were made using a Rheometrics RFSII instrument1. The maximal shear strain was 1% for oscillatory deformation at a frequency of 1 rad/s. […] NY Acad. Sci. 408, 1-10, (1983) or F-actin, as shown in Janmey P. A. et al., Biochemistry 27, 8218-8227 (1988). […] G', shear storage modulus, depends weakly on frequency from 0.1 to 100 rad/s, and is much larger than the shear loss modulus G" (FIG. 6C). […]

[6] = Preparation of gels in ethylether; format: physicochemical; details: diethylether gel, -5° C.
Description: Suspend 150-200 mg finely ground compound 5 of table 2 in 10 mL boiling diethylether. Shake suspension, filter and let sit 30-60 minutes at -5° C. On cooling a gel forms. The peptide concentration can be measured by weighing the gel, and evaporating the solvent in vacuum to a constant weight. In this way a solute concentration of 1-1.2% was found.

[7] = Shear modulus by free oscillations using a torsion pendulum; format: physicochemical
Description: From this curve is calculated the shear modulus G^1.
The shear modulus was measured by free oscillations using a torsion pendulum. The theory and description of the method are described in Plazek D., Vrancke., Berge J., Trans. Soc. Rheol. 2, 38-47 (1958); Ferry J. Viscoelastic Properties of Polymers, Wiley New York (1980), and Janmey P., et al., J. Rheol. 27, 135-153 (1993). Gels are formed by method 1 using Tris buffer pH7.4. The peptide concentration in FIG. 1 is 2.5 mg/ml (0.25%). […] This denotes the moderately high elastic strength of this gel.

[8] = Solubility in water (Example 2); format: physicochemical
Description: as §2
Compound 5 is soluble below 0.8%. At concentrations below 0.4% little or no gel forms. When such a solution is evaporated to 50% volume and then heated and cooled, a gel forms.

[9] = chloroform; cited from earlier work

CC12CC3CC(C)(C1)CC(N)(C3)C2.Cl [Ada2Me, 3,5-dimethyl-1-adamantanamine hydrochloride]
production of specific antibodies, injected alone (rabbits): neither Ada2Me (5 mM) nor AdaMeC (33 mM) produced specific antibodies | concentration incorporated into Fmoc-Leu-Asp gels [1]: 1000 µM | total concentration that inhibits gelation [1]: > 5 mM

CC12CC3CC(N)(C1)CC(C(=O)O)(C3)C2.Cl (stereo not shown) [AdaMeC, 5-methyl-1-adamantanamine 3-carboxylic acid hydrochloride]
production of specific antibodies, injected alone (rabbits): neither Ada2Me (5 mM) nor AdaMeC (33 mM) produced specific antibodies | concentration incorporated into Fmoc-Leu-Asp gels [1]: 33000 µM | total concentration that inhibits gelation [1]: > 33 mM

CCCCCCCCCCCCCCCC(=O)c1ccc(OC(=O)[C@H](C)NC(=O)OCc2ccccc2)c([N+](=O)[O-])c1 [N-benzyl-oxycarbonyl L-alanine 4-hexadecanoyl-2nitrophenyl ester]
concentration at which thermally reversible gels form [2]: below 1%

NC12CC3CC(CC(C3)C1)C2 [adamantamine]
antibody production in rabbits (rabbits; trapped in Fmoc-Leu-Asp gels without additional adjuvant, versus covalently linked to BSA and injected with adjuvant): at least as efficiently

CC[C@H](C)[C@H](NC(=O)OCC1c2ccccc2-c2ccccc21)C(=O)N[C@@H](CC(=O)O)C(=O)O [compound 2, Fmoc--ile--Asp] (Fmoc-Ile-Asp-OH)
Gel formed [3]: Yes | Gel formed (minimum conc., %) [3]: 0.4%

CC(C)C[C@H](NC(=O)OCC1c2ccccc2-c2ccccc21)C(=O)N[C@@H](CC(=O)O)C(=O)O [compound 5, Fmoc--Leu--Asp] (Fmoc-Leu-Asp-OH)
gel formation on cooling ([4]; 0.5-0.6% or 0.8% in water dissolved at 90° C.): forms a gel on cooling | water lost ([4]; after 15 hours, with desicants, without vacuum, room temperature): 57% | storage shear modulus G' ([5]; 2 mg/ml, cooled from 100° C. to 60° C., 1% maximal shear strain, 1 rad/s, stable level within several minutes): 80 Pa | fall of both shear moduli (G', G") on strain, factor ([5]; samples strained to 10%): 100 | solute concentration in the gel [6]: 1-1.2% | shear modulus ([7]; 2.5 mg/ml (0.25%), Tris buffer pH7.4, gel formed by method 1): 3.1 Pa | saturation concentration ([7]; Tris buffer pH7.4): ~5 mg/mL | gel formation with boric acid ([3]; 0.8% in 3.5% boric acid in boiling water, on cooling): a gel forms | temperature at which the solution becomes turbid on cooling ([3]; 0.8% in boiled water): 50-60 °C | Gel formed [3]: Yes | Gel formed (minimum conc., %) [3]: 0.5% | gel formation in glycerol solution ([3]; solutions of 70% glycerol): forms gels | concentration at which little or no gel forms ([3]; water): below 0.4% | concentration at which soluble in water [8]: below 0.8%

CC[C@H](C)[C@H](NC(=O)[C@@H](NC(=O)[C@@H](NC(=O)OC(C)(C)C)C(C)C)C(C)C)C(=O)OC [t-butoxycarbonyl-valyl-valylisoleucine methylester] (Boc-Val-Val-Ile-OMe)
critical micelle concentration [9]: 2.5 mM
